Data on 33 compounds can be found in US5981525A, “Indole derivatives useful in the treatment of osteoporosis” (SmithKline Beecham Corporation, priority 1995, dated 1999).

Where a name gives a salt, the structure may show the parent alone.

Experiment [1] deals with bafilomycin-sensitive ATPase. The experiment in a line: Inhibition of bafilomycin-sensitive ATPase in chicken osteoclasts (ATPase assay, Pi release). It counts as biochemical. As to conditions: chicken osteoclast membranes. The procedure: Vesicles were prepared from medullar bone obtained from tibiae and femurs of egg-laying hens which were calcium-starved for at least 15 days. Briefly, bone fragments were scraped with a 24 scalpel blade, suspended in 40 ml of isolation medium (0.2 M sucrose, 50 mM KCl, 10 mM Hepes, 1 mM EGTA, 2 mM dithiotheitrol, pH 7.4) and filtered through a 100 μm pore size nylon mesh. The whole procedure was performed at 4° C. After homogenisation in a potter (20 strokes) in 40 ml of isolation medium an initial centrifugation (6,500×gmax 20 min) was performed to remove mitochondria and lysosomes. The supematant was centrifuged at 100,000×gmax for 1 hr and the pellet was collected in 1 ml of isolation medium, divided into 200 μl aliquots, immediately frozen in liquid nitrogen and stored at -80° C. The protein content was determined using a Biorad colourimetric kit according to Bradford [M. Bradford, Anal. Biochem., 72, 248 (1976)]. For the proton transport assay, 5-10 μl of membranes were used.
Purification of osteoclast membranes. 1 ml of crude microsomal vesicles prepared above were applied (about 0.2 ml per tube ) on the top of a sucrose step-gradient consisting of 3.5 ml of 15%, 30% and 45% (w/w) sucrose in isolation medium and centrifuged at 280,000 gmax for 2 hours (SW 41 Ti rotor). After centrifugation the 30-45% sucrose interfaces were collected, diluted approx. 20-fold in isolation medium and pelletted at 100,000 gmax for 1 hour (SW 28 rotor). The pellet was then resuspended in 1 ml of isolation medium, aliquoted and frozen in liquid N2 and stored at -80° C. until used.
Inhibition of bafilomycin-sensitive ATPase activity was assessed in purified membrane vesicles by measuring the release of inorganic phosphate (Pi) during 30 min of incubation at 37° C. in a 96-well plate either in the presence or in the absence of bafilomycin Al. The reaction medium contained 1 mM ATP, 10 mM HEPES-Tris pH 8,50 mM KCl, 5 uM valinomycin, 5 uM nigericin, 1 mM CDTA-Tris, 100 uM ammonium molybdate, 0.2 M sucrose and membranes (20 ug protein/ml). The reaction was initiated by MgSO4 (8-arm pipette) and stopped, after 30 min, by addition of 4 volumes of the malachite green reagent (96-arm pipette) prepared according to Chan [Anal. Biochem. 157, 375 (1986)]. Absorbance at 650 nm was measured after 2 min using a microplate reader. Results are expressed as μmol (Pi)×mg protein^-1 ×hour^-1 and, for each experiment, represent the mean±sem of triplicates.

For experiment [2], the system named is osteoclast proton pump. As to conditions: ruffled membrane vesicles from avian osteoclasts; cited from earlier work.
The subject of experiment [3] is osteoclast cultures. The settings on record: cited from earlier work.

Usually IC50 stands for the concentration that gives 50% inhibition. Low readings indicate greater potency, high ones weaker potency. In experiment [1], `COC(=O)/C(=C/C=C/c1cc2cc(Cl)ccc2[nH]1)OC` [Example 4, Methyl (2Z,4E)-5-(5-chloro-2-indolyl)-2-methoxy-2,4-pentadienoate] yielded an IC50 of 7 µM. Same read-out and setting: the same measure for `COC(=O)/C(=C/C=C/c1cc2cc(Cl)c(Cl)cc2[nH]1)OC` [Example 6, Methyl (2Z,4E)-5-(5,6-dichloro-2-indolyl)-2-methoxy-2,4-pentadienoate]: 1.1 µM. Same read-out and setting: the same measure for `CO/C(=C\C=C\c1cc2cc(Cl)ccc2[nH]1)C(=O)NCc1cccnc1` [Example 15, (2Z,4E)-5-(5-Chloro-2-indolyl)-2-methoxy-N-(3-pyridylmethyl)-2,4-pentadienamide]: 22 µM; for `CO/C(=C\C=C\c1cc2cc(Cl)ccc2[nH]1)C(=O)N(Cc1ccccc1)CC(O)CO` (stereo not shown) [Example 20, (2Z,4E)-5-(5-Chloro-2-indolyl)-N-2,3-dihydroxypropyl-2-methoxy-N-phenylmethyl-2,4-pentadienamide]: 15 µM; for `CCN(CC)CCCNC(=O)/C(=C/C=C/c1cc2cc(Cl)ccc2[nH]1)OC` [Example 26, (2Z,4E)-5-(5-Chloro-2-indolyl)-N-[3-(diethylamino)-propyl]-2-methoxy-2,4-pentadienamide]: 3 µM. On the same count and under the same terms, the same measure for `CCOC(=O)/C(=C/C=C/c1cc2cc(Cl)ccc2[nH]1)OCC` [Example 30, Ethyl(2Z,4E)-5-(5-chloro-2-indolyl)-2-ethoxy-2,4-pentadienoate]: 30 µM. `CO/C(=C\C=C\c1cc2cc(Cl)ccc2[nH]1)C(=O)Nc1cccnc1` [Example 33] had an IC50 in experiment [1] of 4 µM. Same read-out and setting: to `CCN(CC)CCCNC(=O)/C(=C/C=C/c1cc2cc(Cl)c(Cl)cc2[nH]1)OC` [Example 34, (2Z,4E)-5-(5,6-Dichloro-2-indolyl)-N-[3-(diethylamino)-propyl]-2-methoxy-2,4-pentadienamide] belongs 0.17 µM; to `CO/C(=C\C=C\c1cc2cc(Cl)ccc2[nH]1)C(=O)NCc1ccc(N)cc1` [Example 37], 30 µM; to `CO/C(=C\C=C\c1cc2cc(Cl)c(Cl)cc2[nH]1)C(=O)Nc1cccnc1` [Example 44, (2Z,4E)-5-(5,6-Dichloro-2-indolyl)-2-methoxy-N-(3-pyridyl)-2,4-pentadienamide], 0.62 µM.

As to `CO/C(=C\C=C\c1cc2cc(Cl)c(Cl)cc2[nH]1)C(=O)NCCCN(CC(=O)O)CC(=O)O` [Example 45, hydrochloride], the IC50 in experiment [1] turned out to be 14 µM.

Consider `CCN(CC)CCNC(=O)/C(=C/C=C/c1cc2cc(Cl)c(Cl)cc2[nH]1)OC` [Example 46, (2Z,4E)-5-(5,6-Dichloro-2-indolyl)-N-[2-(diethylamino)-ethyl]-2-methoxy-2,4-pentadienamide], for which the IC50 in experiment [1] worked out at 0.59 µM. For the compound `CO/C(=C\C=C\c1cc2cc(Cl)c(Cl)cc2[nH]1)C(=O)NCCCn1ccnc1` [Example 49, (2Z,4E)-5-(5,6-Dichloro-2-indolyl)-N-[3-(1H-imidazol-1-yl)-propyl]-2-methoxy-2,4-pentadienamide], it took 4 µM to reach half-maximal inhibition in experiment [1] (IC50).

`CO/C(=C\C=C\c1cc2cc(Cl)c(Cl)cc2[nH]1)C(=O)N[C@@H]1CN2CCC1CC2` [Example 50, (2Z,4E)-N-[(S)-1-Azabicyclo[2.2.2]octan-3-yl]-5-(5,6-dichloro-2-indolyl)-2-methoxy-2,4-pentadienamide] registered a concentration for half-maximal inhibition (IC50) in experiment [1] of 0.62 µM. Still for that read-out and setting: the same measure for `CO/C(=C\C=C\c1cc2cc(Cl)c(Cl)cc2[nH]1)C(=O)NCCCN1CCOCC1` [Example 51, (2Z,4E)-5-(5,6-Dichloro-2-indolyl)-N-[3-(morpholino)propyl]-2-methoxy-2,4-pentadienamide]: 1.1 µM; for `CO/C(=C\C=C\c1cc2cc(Cl)c(Cl)cc2[nH]1)C(=O)NCCN1CCCCC1` [Example 53, (2Z,4E)-5-(5,6-Dichloro-2-indolyl)-N-[2-(1-piperidinyl)-ethyl]-2-methoxy-2,4-pentadienamide]: 1.2 µM. Same read-out and setting: the same measure for `CO/C(=C\C=C\c1cc2cc(Cl)c(Cl)cc2[nH]1)C(=O)NCCC1CCCN1C` (stereo not shown) [Example 54, (2Z,4E)-5-(5,6-Dichloro-2-indolyl)-2-methoxy-N-[2-[2-(1-methyl)pyrrolidinyl]ethyl]-2,4-pentadienamide]: 0.34 µM; for `CO/C(=C\C=C\c1cc2cc(Cl)c(Cl)cc2[nH]1)C(=O)NC1CC(C)(C)NC(C)(C)C1` [Example 56, (2Z,4E)-5-(5,6-Dichloro-2-indolyl)-2-methoxy-N-[4-(2,2,6,6-tetramethyl)piperidinyl]-2,4-pentadienamide]: 0.07 µM.

With `CO/C(=C\C=C\c1cc2cc(Cl)c(Cl)cc2[nH]1)C(=O)Nc1ccc(OC)nc1` [Example 57, (2Z,E)-5-(5,6-Dichloro-2-indolyl)-2-methoxy-N-[5-(2-methoxy)pyridyl]-2,4-pentadienamide], half-maximal inhibition in experiment [1] (IC50) was put at 1.6 µM. Same read-out and setting: to `CO/C(=C\C=C\c1cc2cc(Cl)c(Cl)cc2[nH]1)C(=O)NCCCN1CCCCC1C` (stereo not shown) [Example 59, (2Z,4E)-5-(5,6-Dichloro-2-indolyl)-2-methoxy-N[3-[1-(2-methyl)piperidin-yl]-propyl]-2,4-pentadienamide] belongs 0.13 µM; to `CO/C(=C\C=C\c1cc2cc(Cl)c(Cl)cc2[nH]1)C(=O)NN1CCN(C)CC1` [Example 60, (2Z,4E)-5-(5,6-Dichloro-2-indolyl)-2-methoxy-N-[1-(4-methylpiperazinyl)]-2,4-pentadienamide], 0.85 µM. On the same count and under the same terms, to `CCN(CCCNC(=O)/C(=C/C=C/c1cc2cc(Cl)c(Cl)cc2[nH]1)OC)Cc1ccccc1` [Example 62] belongs 1.4 µM; to `CO/C(=C\C=C\c1cc2cc(Cl)c(Cl)cc2[nH]1)C(=O)Nc1ncccn1` [Example 65, (2Z,4E)-5-(5,6-Dichloro-2-indolyl)-2-methoxy-N-(2-pyrimidinyl)-2,4-pentadienamide], 17 µM. For `CO/C(=C\C=C\c1cc2cc(Cl)c(Cl)cc2[nH]1)C(=O)NC1CC2CCC(C1)N2C` (stereo not drawn) [Example 66, (2Z,4E)-6-(5,6-dichloro-2-indolyl)-N-[8-methyl-8-azabicyclo[3.2.1]oct-3β-yl]-2-methoxy-2,4-pentadienamide], in experiment [1], the midpoint of inhibition, the IC50, lay at 0.1 µM. Still for that read-out and setting: the same measure for `CO/C(=C\C=C\c1cc2cc(Cl)c(Cl)cc2[nH]1)C(=O)NCCCN1CCN(C)CC1` [Example 67, (2Z,4E)-5-(5,6-Dichloro-2-indolyl)-2-methoxy-N-[3-[1-(4-methyl)piperazinyl]-propyl]-2,4-pentadienamide]: 1.3 µM.

In turn, `CO/C(=C\C=C\c1cc2cc(Cl)c(Cl)cc2[nH]1)C(=O)NC1CCN(C)CC1` [Example 70, (2Z,4E)-5-(5,6-Dichloro-2-indolyl)-2-methoxy-N-[4-(1-methyl)-piperidinyl]-2,4-pentadienamide] displayed an IC50 in experiment [1] of 0.12 µM. Turning to `CO/C(=C\C=C\c1cc2cc(Cl)c(Cl)cc2[nH]1)C(=O)Nc1ncnc2[nH]ncc12` [Example 71, (2Z,4E)-5-(5,6-Dichloro-2-indolyl)-2-methoxy-N-(1H-pyrazolo[3,4-d]pyrimidin-4-yl)-2,4-pentadienamide], it took 0.53 µM to reach half-maximal inhibition in experiment [1] (IC50).

Regarding `CCN1C(=O)C=CC1=O` [N-ethylmaleimide], the “inhibition of proton transport” value in experiment [2] was “inhibited”. With `Cc1nc2c(OCc3ccccc3)cccn2c1CC#N` [SCH 28080], in experiment [2], the “inhibition of proton transport” value is “not inhibited”. `CO/C1=C\C(C)=C\[C@@H](C)[C@@H](O)[C@@H](C)C/C(C)=C/C=C/[C@H](OC)[C@@H]([C@@H](C)[C@@H](O)[C@H](C)[C@@]2(O)C[C@@H](O)[C@H](C)[C@@H](C(C)C)O2)OC1=O` [bafilomycin A1]: in experiment [2], the “inhibition of proton transport” value is “inhibited”. In experiment [3], the “inhibition of bone resorption” value is given as “inhibit bone resorption”. Regarding `COc1ccc2[nH]c([S+]([O-])Cc3ncc(C)c(OC)c3C)nc2c1` (stereo not shown) [omeprazole], in experiment [2], the “inhibition of proton transport” value is “not inhibited”. As to `C[C@@H]1O[C@@H](O[C@H]2C[C@@H](O)[C@]3(CO)[C@H]4[C@H](O)C[C@]5(C)[C@@H](C6=CC(=O)OC6)CC[C@]5(O)[C@@H]4CC[C@]3(O)C2)[C@H](O)[C@H](O)[C@H]1O` [ouabain], the “inhibition of proton transport” value in experiment [2] is “not inhibited”. On to `[Na+].[Na+].[Na+].[O]=[V]([O-])([O-])[O-]` [sodium orthovanadate], for which the “inhibition of proton transport” value in experiment [2] is listed as “not inhibited”.
